Assay results as given in ChEMBL document CHEMBL5046241, “The novel therapeutic strategy of vilazodone-donepezil chimeras as potent triple-target ligands for the potential treatment of Alzheimer's disease with comorbid depression” (Eur J Med Chem, 2022).

Each compound was assayed against Sodium-dependent serotonin transporter (Homo sapiens, UniProt P31645) (assay: not given).
Type: cell-based, HEK293

Chain of Sodium-dependent serotonin transporter (P31645 whole entry): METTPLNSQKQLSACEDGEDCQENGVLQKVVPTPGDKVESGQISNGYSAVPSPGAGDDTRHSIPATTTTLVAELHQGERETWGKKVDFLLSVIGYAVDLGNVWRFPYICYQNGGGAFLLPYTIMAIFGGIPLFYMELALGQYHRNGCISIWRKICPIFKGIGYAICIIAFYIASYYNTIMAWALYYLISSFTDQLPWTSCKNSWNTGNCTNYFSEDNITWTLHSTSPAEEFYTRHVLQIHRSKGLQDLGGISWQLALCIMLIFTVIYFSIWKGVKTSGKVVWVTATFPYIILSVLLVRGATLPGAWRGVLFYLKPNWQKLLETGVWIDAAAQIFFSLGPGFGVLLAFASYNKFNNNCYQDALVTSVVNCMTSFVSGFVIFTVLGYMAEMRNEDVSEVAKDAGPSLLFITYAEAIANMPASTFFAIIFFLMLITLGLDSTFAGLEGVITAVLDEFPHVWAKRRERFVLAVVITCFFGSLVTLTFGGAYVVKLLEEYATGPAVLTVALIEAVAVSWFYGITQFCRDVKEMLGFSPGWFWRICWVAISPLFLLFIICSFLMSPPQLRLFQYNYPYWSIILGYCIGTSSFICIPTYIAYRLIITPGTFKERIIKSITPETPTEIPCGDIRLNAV

| Compound | IC50 |
| --- | --- |
| N#Cc1ccc2[nH]cc(CCCCN3CCN(c4ccc5c(c4)CC(CC4CCN(Cc6ccccc6)CC4)C5=O)CC3)c2c1 (stereo not given) | 36 nM |
| N#Cc1ccc2[nH]cc(CCN3CCN(c4ccc(C(=O)CCC5CCN(Cc6ccccc6)CC5)cc4)CC3)c2c1 | 32.3 nM |
| O=C(CCC1CCN(Cc2ccccc2)CC1)c1ccc(N2CCN(CCCCc3c[nH]c4ccccc34)CC2)cc1 | 285 nM |
| COc1ccc2[nH]cc(CCCCN3CCN(c4ccc(C(=O)CCC5CCN(Cc6ccccc6)CC5)cc4)CC3)c2c1 | 76.5 nM |
| N#Cc1ccc2[nH]cc(CCCN3CCN(c4ccc(C(=O)CCC5CCN(Cc6ccsc6)CC5)cc4)CC3)c2c1 | 41.1 nM |
| COC(=O)c1ccc2[nH]cc(CCCCN3CCN(c4ccc(C(=O)CCC5CCN(Cc6ccccc6)CC5)cc4)CC3)c2c1 | > 1000 nM |
| O=C(CCC1CCN(Cc2ccccc2)CC1)c1ccc(N2CCN(CCCCc3c[nH]c4ccc(F)cc34)CC2)cc1 | 114 nM |
| O=C(CCC1CCN(Cc2ccccc2)CC1)c1ccc(N2CCN(CCCCc3c[nH]c4ccc(Cl)cc34)CC2)cc1 | 159 nM |
| N#Cc1ccc2[nH]cc(CCCN3CCN(c4ccc(C(=O)CCC5CCN(Cc6cc[nH]c6)CC5)cc4)CC3)c2c1 | 14.9 nM |

These compounds were tested against T1, Acetylcholinesterase (Mus musculus, UniProt P21836) (assay: biochemical).
T1 sequence (P21836 whole entry): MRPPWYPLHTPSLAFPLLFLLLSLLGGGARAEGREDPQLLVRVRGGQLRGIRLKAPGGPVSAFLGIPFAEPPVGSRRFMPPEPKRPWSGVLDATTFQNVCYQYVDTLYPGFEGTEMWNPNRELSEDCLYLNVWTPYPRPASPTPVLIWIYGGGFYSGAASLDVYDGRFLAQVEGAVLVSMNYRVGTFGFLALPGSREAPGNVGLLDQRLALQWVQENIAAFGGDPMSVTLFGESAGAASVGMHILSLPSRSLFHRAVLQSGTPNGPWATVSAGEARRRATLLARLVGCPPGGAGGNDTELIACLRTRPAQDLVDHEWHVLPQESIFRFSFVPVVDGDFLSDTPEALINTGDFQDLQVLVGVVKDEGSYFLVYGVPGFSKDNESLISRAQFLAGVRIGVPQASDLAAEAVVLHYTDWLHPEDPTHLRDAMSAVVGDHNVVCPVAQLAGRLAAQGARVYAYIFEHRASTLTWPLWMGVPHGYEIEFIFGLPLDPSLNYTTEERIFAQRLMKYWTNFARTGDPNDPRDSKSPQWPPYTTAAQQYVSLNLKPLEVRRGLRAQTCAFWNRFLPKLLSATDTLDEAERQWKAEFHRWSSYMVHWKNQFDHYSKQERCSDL
Description: Inhibition of AChE in mouse cortical homogenate using acetylthiocholine iodide as substrate incubated for 20 mins by Ellman's method

| Compound | IC50 |
| --- | --- |
| N#Cc1ccc2[nH]cc(CCCCN3CCN(c4ccc5c(c4)CC(CC4CCN(Cc6ccccc6)CC4)C5=O)CC3)c2c1 (stereo not given) | 5.84 nM |
| N#Cc1ccc2[nH]cc(CCCCN3CCN(c4cccc(C(=O)CCC5CCN(Cc6ccccc6)CC5)c4)CC3)c2c1 | 37.9 nM |
| N#Cc1ccc2[nH]cc(CCCCN3CCN(c4ccc5c(c4)C(=O)C(CC4CCN(Cc6ccccc6)CC4)C5)CC3)c2c1 (stereo not given) | 37.4 nM |
| N#Cc1ccc2[nH]cc(CCN3CCN(c4ccc(C(=O)CCC5CCN(Cc6ccccc6)CC5)cc4)CC3)c2c1 | 5.04 nM |
| N#Cc1ccc2[nH]cc(CCCCN3CCN(c4ccc(C(=O)CCC5CCN(CC6CCCCC6)CC5)cc4)CC3)c2c1 | 76.5 nM |
| O=C(CCC1CCN(Cc2ccccc2)CC1)c1ccc(N2CCN(CCCCc3c[nH]c4ccccc34)CC2)cc1 | 1.51 nM |
| N#Cc1ccc2[nH]cc(CCCCN3CCN(c4ccc(C(=O)CCC5CCN(CC6CCC6)CC5)cc4)CC3)c2c1 | 249 nM |
| N#Cc1ccc2[nH]cc(CCN3CCN(c4ccc(C(=O)CCC5CCN(Cc6ccoc6)CC5)cc4)CC3)c2c1 | 12.3 nM |
| Cc1cccc(CN2CCC(CCC(=O)c3ccc(N4CCN(CCCCc5c[nH]c6ccc(C#N)cc56)CC4)cc3)CC2)c1 | 18.3 nM |
| COc1ccc2[nH]cc(CCCCN3CCN(c4ccc(C(=O)CCC5CCN(Cc6ccccc6)CC5)cc4)CC3)c2c1 | 2.42 nM |
| N#Cc1ccc2[nH]cc(CCCCN3CCN(c4ccc(C(=O)CCC5CCN(Cc6cccc(Br)c6)CC5)cc4)CC3)c2c1 | 91.5 nM |
| O=C(CCC1CCN(Cc2ccccc2)CC1)c1ccc(N2CCN(CCCCc3c[nH]c4ccc(Br)cc34)CC2)cc1 | 7.75 nM |
| N#Cc1ccc2[nH]cc(CCCN3CCN(c4ccc(C(=O)CCC5CCN(Cc6cccnc6)CC5)cc4)CC3)c2c1 | 6.41 nM |
| N#Cc1ccc2[nH]cc(CCCN3CCN(c4ccc(C(=O)CCC5CCN(Cc6ccsc6)CC5)cc4)CC3)c2c1 | 1.85 nM |
| COC(=O)c1ccc2[nH]cc(CCCCN3CCN(c4ccc(C(=O)CCC5CCN(Cc6ccccc6)CC5)cc4)CC3)c2c1 | 3.28 nM |
| CCCCN1CCC(CCC(=O)c2ccc(N3CCN(CCCCc4c[nH]c5ccc(C#N)cc45)CC3)cc2)CC1 | 124 nM |
| N#Cc1ccc2[nH]cc(CCCCN3CCN(c4ccccc4C(=O)CCC4CCN(Cc5ccccc5)CC4)CC3)c2c1 | 2520 nM |
| O=C(CCC1CCN(Cc2ccccc2)CC1)c1ccc(N2CCN(CCCCc3c[nH]c4ccc(F)cc34)CC2)cc1 | 2.43 nM |
| COc1cccc(CN2CCC(CCC(=O)c3ccc(N4CCN(CCCCc5c[nH]c6ccc(C#N)cc56)CC4)cc3)CC2)c1 | 644 nM |
| O=C(CCC1CCN(Cc2ccccc2)CC1)c1ccc(N2CCN(CCCCc3c[nH]c4ccc(Cl)cc34)CC2)cc1 | 3.52 nM |
| N#Cc1ccc2[nH]cc(CCCCN3CCN(c4ccc5c(c4)C/C(=C\C4CCN(Cc6ccccc6)CC4)C5=O)CC3)c2c1 | 30.7 nM |
| N#Cc1ccc2[nH]cc(CCCCN3CCN(c4ccc(C(=O)CCC5CCN(Cc6cccc(F)c6)CC5)cc4)CC3)c2c1 | 10.9 nM |
| N#Cc1ccc2[nH]cc(CCCCN3CCN(c4ccc(C(=O)CCC5CCN(Cc6ccccc6F)CC5)cc4)CC3)c2c1 | 12 nM |
| N#Cc1ccc2[nH]cc(CCCN3CCN(c4ccc(C(=O)CCC5CCN(Cc6cc[nH]c6)CC5)cc4)CC3)c2c1 | 3.27 nM |

These compounds were tested against Cholinesterase (Mus musculus, UniProt Q03311) (assay: not given).
Chain of Cholinesterase (Q03311 whole entry): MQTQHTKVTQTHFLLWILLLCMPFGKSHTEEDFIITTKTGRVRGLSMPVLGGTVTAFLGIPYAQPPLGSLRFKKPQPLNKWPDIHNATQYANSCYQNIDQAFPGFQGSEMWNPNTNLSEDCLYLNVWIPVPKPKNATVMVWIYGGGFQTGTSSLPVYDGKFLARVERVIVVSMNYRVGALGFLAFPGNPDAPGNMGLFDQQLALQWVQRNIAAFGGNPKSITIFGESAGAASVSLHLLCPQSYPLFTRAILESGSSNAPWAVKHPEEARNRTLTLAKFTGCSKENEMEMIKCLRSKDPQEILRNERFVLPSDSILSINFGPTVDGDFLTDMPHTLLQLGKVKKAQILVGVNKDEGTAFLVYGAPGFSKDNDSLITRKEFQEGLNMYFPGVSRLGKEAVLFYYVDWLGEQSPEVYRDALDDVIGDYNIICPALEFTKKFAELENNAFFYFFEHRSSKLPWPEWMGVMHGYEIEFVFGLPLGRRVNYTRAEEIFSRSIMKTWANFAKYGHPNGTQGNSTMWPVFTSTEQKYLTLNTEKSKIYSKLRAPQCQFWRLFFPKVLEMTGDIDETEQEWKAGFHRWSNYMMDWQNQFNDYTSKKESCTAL

| Compound | IC50 |
| --- | --- |
| N#Cc1ccc2[nH]cc(CCCCN3CCN(c4ccc5c(c4)CC(CC4CCN(Cc6ccccc6)CC4)C5=O)CC3)c2c1 (stereo not given) | 1670 nM |
| N#Cc1ccc2[nH]cc(CCCCN3CCN(c4cccc(C(=O)CCC5CCN(Cc6ccccc6)CC5)c4)CC3)c2c1 | 1000 nM |
| N#Cc1ccc2[nH]cc(CCCCN3CCN(c4ccc5c(c4)C(=O)C(CC4CCN(Cc6ccccc6)CC4)C5)CC3)c2c1 (stereo not given) | 325 nM |
| N#Cc1ccc2[nH]cc(CCN3CCN(c4ccc(C(=O)CCC5CCN(Cc6ccccc6)CC5)cc4)CC3)c2c1 | 3000 nM |
| N#Cc1ccc2[nH]cc(CCCCN3CCN(c4ccc(C(=O)CCC5CCN(CC6CCCCC6)CC5)cc4)CC3)c2c1 | 2830 nM |
| O=C(CCC1CCN(Cc2ccccc2)CC1)c1ccc(N2CCN(CCCCc3c[nH]c4ccccc34)CC2)cc1 | 986 nM |
| N#Cc1ccc2[nH]cc(CCCCN3CCN(c4ccc(C(=O)CCC5CCN(CC6CCC6)CC5)cc4)CC3)c2c1 | 1320 nM |
| N#Cc1ccc2[nH]cc(CCN3CCN(c4ccc(C(=O)CCC5CCN(Cc6ccoc6)CC5)cc4)CC3)c2c1 | 2840 nM |
| Cc1cccc(CN2CCC(CCC(=O)c3ccc(N4CCN(CCCCc5c[nH]c6ccc(C#N)cc56)CC4)cc3)CC2)c1 | 13400 nM |
| COc1ccc2[nH]cc(CCCCN3CCN(c4ccc(C(=O)CCC5CCN(Cc6ccccc6)CC5)cc4)CC3)c2c1 | 687 nM |
| O=C(CCC1CCN(Cc2ccccc2)CC1)c1ccc(N2CCN(CCCCc3c[nH]c4ccc(Br)cc34)CC2)cc1 | 3840 nM |
| N#Cc1ccc2[nH]cc(CCCN3CCN(c4ccc(C(=O)CCC5CCN(Cc6cccnc6)CC5)cc4)CC3)c2c1 | 2010 nM |
| N#Cc1ccc2[nH]cc(CCCN3CCN(c4ccc(C(=O)CCC5CCN(Cc6ccsc6)CC5)cc4)CC3)c2c1 | 1200 nM |
| COC(=O)c1ccc2[nH]cc(CCCCN3CCN(c4ccc(C(=O)CCC5CCN(Cc6ccccc6)CC5)cc4)CC3)c2c1 | 336 nM |
| CCCCN1CCC(CCC(=O)c2ccc(N3CCN(CCCCc4c[nH]c5ccc(C#N)cc45)CC3)cc2)CC1 | 1910 nM |
| N#Cc1ccc2[nH]cc(CCCCN3CCN(c4ccccc4C(=O)CCC4CCN(Cc5ccccc5)CC4)CC3)c2c1 | 351 nM |
| O=C(CCC1CCN(Cc2ccccc2)CC1)c1ccc(N2CCN(CCCCc3c[nH]c4ccc(F)cc34)CC2)cc1 | 1470 nM |
| O=C(CCC1CCN(Cc2ccccc2)CC1)c1ccc(N2CCN(CCCCc3c[nH]c4ccc(Cl)cc34)CC2)cc1 | 2720 nM |
| N#Cc1ccc2[nH]cc(CCCCN3CCN(c4ccc5c(c4)C/C(=C\C4CCN(Cc6ccccc6)CC4)C5=O)CC3)c2c1 | 4950 nM |
| N#Cc1ccc2[nH]cc(CCCCN3CCN(c4ccc(C(=O)CCC5CCN(Cc6cccc(F)c6)CC5)cc4)CC3)c2c1 | 11300 nM |
| N#Cc1ccc2[nH]cc(CCCCN3CCN(c4ccc(C(=O)CCC5CCN(Cc6ccccc6F)CC5)cc4)CC3)c2c1 | 2510 nM |
| N#Cc1ccc2[nH]cc(CCCN3CCN(c4ccc(C(=O)CCC5CCN(Cc6cc[nH]c6)CC5)cc4)CC3)c2c1 | 1130 nM |
